“Also recorded” adds a separate entry of the source.
What was measured:
[1] = tested on: PPT2- and PC3MM2-induced tumors; experiment: Tumor xenografts induced by CD133+ cells, tumor size; type: in vivo, NOD/SCID mice
Procedure: All experiments involving the use of animals were carried out in strict accordance with the recommendations in the Guide for the Care and Use of Laboratory Animals of the National Institutes of Health, via a research protocol that was approved by Stony Brook University Institutional Animal Care and Use Committee (IACUC). NOD/SCID mice (Charles River Laboratories International, Inc., MA) were maintained under defined conditions at SBU animal facility. After sufficient propagation, CD133^+ cells were resuspended in 1:1 MSCGM/Matrigel and injected to the flanks of 6 weeks old NOD/SCID mice (3,000 cells per mice; subcutaneously). Tumor development was monitored starting from the second week. The primary tumor sizes were measured with a caliper on a weekly basis and approximate tumor weights determined using the formula 0.5ab^2, where b is the smaller of the two perpendicular diameters. All mice were terminated after fourth week of treatment, if the tumor measured ˜2 cm, or at the first sign of suffering.
Animals were handled according to protocols that have been approved by the Institutional Animal Care and Use committee of the Stony Brook University. […] Systemic toxicity in NOD/SCID mice was closely monitored and evaluated by standard criteria (motor activity, morbidity, appetite, posture and appearance). […] Cells were counted and plated on 48-well plates at a final count of 300 cells per well. […]

[2] = Systemic toxicity in tumor-bearing mice; type: in vivo, NOD/SCID mice
Procedure: (§1) Animals were handled according to protocols that have been approved by the Institutional Animal Care and Use committee of the Stony Brook University. The staff of veterinarians provided veterinary care. The SBT-1214 was administered intravenously (40, 20, 20, 20 mg/kg; weekly) to 6-weeks old NOD/SCID mice. Treatment was started 2-3 weeks after transplantation of the tumor cells, when tumor xenografts reached ˜100 mm^3. Systemic toxicity in NOD/SCID mice was closely monitored and evaluated by standard criteria (motor activity, morbidity, appetite, posture and appearance). One week after the last treatment, all residual tumors were harvested and analyzed histopathologically and for ex vivo clonogenic capacity. One part of each mouse tumor xenograft was snap-frozen in embedding matrix (Lipshaw) and kept at −80° C. before immunohistochemical analysis at standard conditions. […] Ability to induce the round colonies (holoclones) was also determined before and after drug treatment. Cells were counted and plated on 48-well plates at a final count of 300 cells per well. One week after initiation, the plates were inspected for colony growth and the number of colonies within each well was quantified by phase contrast microscopy. After drug treatment, one portion of cells which survived particular treatment regimen was placed at 3D and adherent culture conditions and analyzed. […]

[3] = tested on: PPT2 and PC3MM2 floating spheroids; experiment: Sphere formation assay after drug treatment; type: cell-based, human; conditions: 1 μM, 24 hours
Procedure: In order to obtain prostate cancer spheroids, MACS-CD133 and MACS-CD44 (Miltenyi Biotec, CA) or FACS sorted CD133^high/CD44^high cells were seeded at low numbers on ULA plates (1,000 cells per 6-well plate or 5-10,000 cells per 75 mm flasks) in MSCGM or SPCM. For evaluation of the clonogenic/sphere-forming capacity, cells were counted with Cellometer Auto T4 (Nexcelom Bioscience LLC, MA), resuspended in 1:4 type I collagen/SPCM or 1:4 Matrigel/MSGM and known cell numbers were plated on ULA plates. One week after initiation plates were inspected for floating sphere growth and compact well-shaped spheroids were counted. Spheroids were serially passaged by gentle dissociation and mixing with a new Matrigel/MSGM or type I collagen/SPCM, or reseeded on 48-well plates for final count of 5-10 spheres per well for further propagation and analysis.

[4] = tested on: CD133+ PC3MM2 cells; experiment: MTT cytotoxicity assay, CD133+ PC3MM2 cells on type I collagen; type: cell-based, human; conditions: 72 hours, 10 nM-10 μM, stated as up to
Procedure: (§2) The CSC-specific cytotoxic effects were studied in two different settings both of which are known to maintain/promote sternness phenotype: adherent to type I collagen cultures and 3D cultures of floating spheroids (Baretton, G. B. 1994; Miyoshi, Y. 2000; Koivisto, P. 1995). The CD133^high/CD44^high cells (1×10^3 cells/well) isolated either from PPT2 or PC3MM2 cell lines were seeded onto the type I collagen-coated 96-well plates, cultured in the MSCGM for 2 days, and the treatment was initiated upon 90% confluency. Paclitaxel, SBT-1214 and CMC2.24 were dissolved in sterile DMSO and then serially diluted in MSCGM. […] Cell death was analyzed on adherent type I collagen cell cultures with the MTT assay [MTT=3-(4,5-dimethylthiazol-2-yl)-2,5-diphenyltetrazolium bromide] as recommended by manufacturer (Invitrogen). […]
The dose-response cytotoxicity of SBT-1214, CMC2.24/and their combination was evaluated by standard MTT assay (all of the in vitro experiments were repeated at least three times and each measurement for the MMT assay was performed in 4 repeats). The dose-response points were plotted as a percentage of the untreated control, the absorbance of which was considered as 100%. Data were expressed as means±SD for each drug concentration. […] Data were expressed as means±SD for control and drug treated tumors. The statistical significance of differences was determined using Student's t-test. […]

[5] = tested on: c-Myc, Sox-2 and Oct4; experiment: Western blot of key transcription factors; type: cell-based, human; conditions: nuclear extracts of CD133+ and bulk PPT2 cells
Procedure: (§3) Cells were lysed using Active Motif Nuclear Co-ip kit according to manufacturer's protocol. 20 μg of enriched nuclear and cytoplasmic extracts was subjected to electrophoresis in 10% polyacrylamide gel. The proteins were then transferred to a nitrocellulose membrane and developed with appropriate antibodies.

[6] = tested on: drug-resistant colon tumor xenografts; conditions: all surviving mice; cited from earlier work
[7] = tested on: Oct-4, Sox-2, Nanog, Lin-28 and c-Myc; experiment: Stem cell-specific PCR array on 3D spheroids induced by CD133high/CD44high cells; type: cell-based; conditions: single treatment with 0.01 μg/ml
Procedure: Stem cell-specific gene expression profiles were studied with the PCR Array assay (SABiosciences, CA) in accordance with the manufacturer's recommendations. Briefly, total RNA was isolated from different cell populations (cancer stem cells expressing high levels of the CD133 and CD44, or whole floating spheroids that are enriched with CSCs) using PARIS kit (Ambion). Up to 1 μg of total RNA was treated with DNase and cDNA was prepared using RT^2 First Strand kit. For each analysis, pairs of the test and control cDNA samples were mixed with RT^2 qPCR Master mix and distributed across the PCR array 96-well plates, each of which contained 84 stem cell-related probes and control housekeeping genes. After cycling with real-time PCR (Opticon MJ Research or ABI 7300, Applied Biosystems), obtained amplification data (fold-changes in Ct values of all the genes) was analyzed with SABiosciences software.
Since CSC-enriched CD 133^+ and CD44^+ cell populations are more resistant to conventional therapies than other more differentiated cells, the cytotoxic effects of SBT-1214 were tested against such cell populations in colon (Botchkina et al., 2010) and prostate (FIG. 5) cancers. […]

[8] = tested on: p53 and p21; experiment: Western blot of pro-apoptotic proteins; type: cell-based, human; conditions: CD133+ and bulk PPT2 cells, previously not expressed
Procedure: as §3

[9] = tested on: CD133+ PPT2 cells; type: cell-based, human
Procedure: (§4) The CSC-specific cytotoxic effects were studied in two different settings both of which are known to maintain/promote sternness phenotype: adherent to type I collagen cultures and 3D cultures of floating spheroids (Baretton, G. B. 1994; Miyoshi, Y. 2000; Koivisto, P. 1995). The CD133^high/CD44^high cells (1×10^3 cells/well) isolated either from PPT2 or PC3MM2 cell lines were seeded onto the type I collagen-coated 96-well plates, cultured in the MSCGM for 2 days, and the treatment was initiated upon 90% confluency. Paclitaxel, SBT-1214 and CMC2.24 were dissolved in sterile DMSO and then serially diluted in MSCGM. For testing the SBT-1214/CMC2.24 combination efficacy, the regular MSCGM was replaced with treatment medium containing SBT-1214 or Ptx at selected concentration range (from 10 nM to 10 μM) with 30 μM CMC2.24. Treatment medium was removed 24, 48 or 72 hr later, followed by return to the MSCGM. Cell death was analyzed on adherent type I collagen cell cultures with the MTT assay [MTT=3-(4,5-dimethylthiazol-2-yl)-2,5-diphenyltetrazolium bromide] as recommended by manufacturer (Invitrogen). Spheroids were cultured and treated on ULA plates.
(§5) The dose-response cytotoxicity of SBT-1214, CMC2.24/and their combination was evaluated by standard MTT assay (all of the in vitro experiments were repeated at least three times and each measurement for the MMT assay was performed in 4 repeats). The dose-response points were plotted as a percentage of the untreated control, the absorbance of which was considered as 100%. Data were expressed as means±SD for each drug concentration. The in vivo responses to drug treatment were evaluated as changes in tumor volume of drug-treated versus untreated control xenografts induced by particular type of cells. Data were expressed as means±SD for control and drug treated tumors. The statistical significance of differences was determined using Student's t-test. The parameters used were the two-tailed distribution and the paired test. P<0.05 was considered statistically significant.

[10] = tested on: PPT2-induced tumors; experiment: Residual tumors after treatment, viable cells and ex vivo colonies, PPT2; type: in vivo, NOD/SCID mice; conditions: 40, 20, 20, 20 mg/kg weekly, one week after last treatment
Procedure: as §1

[11] = tested on: PC3MM2-induced tumors; experiment: Residual tumors after treatment, viable cells and ex vivo colonies, PC3MM2; type: in vivo, NOD/SCID mice; conditions: 40, 20, 20, 20 mg/kg weekly, one week after last treatment
Procedure: as §1

[12] = tested on: prostate CD133+ cells (PPT2 and PC3MM2); experiment: MTT cytotoxicity assay, results stated for prostate CD133+ cells without split by line; type: cell-based, human
Procedure: as §4, §5

[13] = tested on: PPT2 and PC3MM2 cell lines; experiment: FACS analysis of CD133 expression after drug treatment; type: cell-based, human; conditions: 10 nM to 10 μM, 24 hours, concentration-dependent
Excerpt: To ensure more reliable isolation of CSCs, cells were labeled with one or several markers conjugated with different fluorescent dyes, including anti-human CD133/2-APC (clone 293C3; Miltenyi Biotec, CA, USA); CD166-PE (clone 105902; R&D Systems, MN, USA); CD44-FITC (clone F10-44-2), CD44-PE (clone F10-44-2; Invitrogen/Biosources, USA); CD44v6-FITC (clone 2F10; R&D Systems, USA), EpCAM-FITC (Biosource, CA, USA), Pan-Keratin (C11)-Alexa Fluor® 488 (Cell Signaling) and all the isotype controls (Chemicon). Antibodies were diluted in buffer containing 5% BSA, 1 mM EDTA and 15-20% blocking reagent (Miltenyi Biotec) to inhibit unspecific binding to non-target cells. After 15 min incubation at 4° C., stained cells were sorted and analyzed with multiparametric flow cytometer BD FACSAria (Becton Dickinson, CA). Alternatively, dissociated cells were centrifuged at 950 g for 5 min at 4° C., rinsed with sterile MACS buffer (Miltenyi Biotec, CA) and labeled with CD133 Abs directly or indirectly conjugated with ferromagnetic beads (Miltenyi Biotec, CA) as recommended by manufacturer.
as §2

Row | Compound | tumor size ([1]; 40, 20, 20, 20 mg/kg weekly i.v.) | tumor size ([1]; 40, 40, 40 mg/kg weekly i.v., by the third treatment) | systemic toxicity ([2]; 40, 20, 20, 20 mg/kg weekly) | systemic toxicity ([2]; 40, 40, 40 mg/kg weekly) | ability to induce secondary 3D spheroids or collagen-adherent colonies [3] | cell death [4] | c-Myc and Sox2 expression [5] | tumor regression [6] | expression of key regulators of pluripotency [7] | expression of p21 and p53 [8] | cytotoxicity at lower concentrations compared to 10 μM ([9]; 100 nM-1 μM versus 10 μM, 48-72 hours) | cell death ([9]; 72 hours, 10 nM-10 μM, stated as up to) | residual tumors without viable cells and without colonies in culture [10] | residual tumors without viable cells and without colonies in culture [11] | CD133+ cells killed ([12]; 48-72 hours, 10 nM to 10 μM, stated as up to) | ratios of cells with highest expression of CD133 [13] | concentration dependence of effect on prostate CD133+ cells ([12]; single agent)
1 | CC(=O)O[C@@]12CO[C@@H]1C[C@H](O)[C@@]1(C)C(=O)[C@H](OC(=O)C3CC3)C3=C(C)[C@@H](OC(=O)[C@H](O)[C@H](C=C(C)C)NC(=O)OC(C)(C)C)C[C@@](O)([C@@H](OC(=O)c4ccccc4)[C@H]21)C3(C)C [SBT-1214] | more significant tumor regression; also recorded: dramatic reduction in tumor size | dramatically shrunk | much lower systemic toxicity | all mice expressed common signs of systemic toxicity | lost their ability to induce both secondary 3D spheroids | up to 60% | moderate down-regulation | complete regression | significantly inhibited | induced expression | higher cytotoxicity | up to 65% | Four of six | three of six | up to 60% | increased the ratios | –
2 | COc1cc(/C=C/C(=O)CC(=O)/C=C/c2ccc(O)c(OC)c2)ccc1O [curcumin, diferuloylmethane] | – | – | – | – | – | – | – | – | – | – | – | – | – | – | – | – | biphasic effects

Reference: patent publication US9675576B2, “Polyenolic zinc-binding agents (pezbins) actively promote inactivation of cancer stem cells and potentiate cytotoxic anti-tumor drug substances” (The Research Foundation for The State University of New York, priority 2012, dated 2017)
